Experimental data: paper PMC10003107, “Selectivity of Hydroxamate- and Difluoromethyloxadiazole-Based Inhibitors of Histone Deacetylase 6 In Vitro and in Cells” (International Journal of Molecular Sciences, 2023)
Values joined by “and” are separate entries in the source; they are usually repeats but may differ in a detail not shown here. Equal values may be shown once.

Experiments:
HDAC6-nanoLuc = target: T1, HDAC6-nanoLuc (Homo sapiens, UniProt Q9UBN7); assay: nanoBRET target engagement assay, HDAC6; assay type: cell-based; conditions: HEK293T/17 cells stably expressing HDAC6-nanoLuc, 2 h
T1 sequence (Q9UBN7 1-1215): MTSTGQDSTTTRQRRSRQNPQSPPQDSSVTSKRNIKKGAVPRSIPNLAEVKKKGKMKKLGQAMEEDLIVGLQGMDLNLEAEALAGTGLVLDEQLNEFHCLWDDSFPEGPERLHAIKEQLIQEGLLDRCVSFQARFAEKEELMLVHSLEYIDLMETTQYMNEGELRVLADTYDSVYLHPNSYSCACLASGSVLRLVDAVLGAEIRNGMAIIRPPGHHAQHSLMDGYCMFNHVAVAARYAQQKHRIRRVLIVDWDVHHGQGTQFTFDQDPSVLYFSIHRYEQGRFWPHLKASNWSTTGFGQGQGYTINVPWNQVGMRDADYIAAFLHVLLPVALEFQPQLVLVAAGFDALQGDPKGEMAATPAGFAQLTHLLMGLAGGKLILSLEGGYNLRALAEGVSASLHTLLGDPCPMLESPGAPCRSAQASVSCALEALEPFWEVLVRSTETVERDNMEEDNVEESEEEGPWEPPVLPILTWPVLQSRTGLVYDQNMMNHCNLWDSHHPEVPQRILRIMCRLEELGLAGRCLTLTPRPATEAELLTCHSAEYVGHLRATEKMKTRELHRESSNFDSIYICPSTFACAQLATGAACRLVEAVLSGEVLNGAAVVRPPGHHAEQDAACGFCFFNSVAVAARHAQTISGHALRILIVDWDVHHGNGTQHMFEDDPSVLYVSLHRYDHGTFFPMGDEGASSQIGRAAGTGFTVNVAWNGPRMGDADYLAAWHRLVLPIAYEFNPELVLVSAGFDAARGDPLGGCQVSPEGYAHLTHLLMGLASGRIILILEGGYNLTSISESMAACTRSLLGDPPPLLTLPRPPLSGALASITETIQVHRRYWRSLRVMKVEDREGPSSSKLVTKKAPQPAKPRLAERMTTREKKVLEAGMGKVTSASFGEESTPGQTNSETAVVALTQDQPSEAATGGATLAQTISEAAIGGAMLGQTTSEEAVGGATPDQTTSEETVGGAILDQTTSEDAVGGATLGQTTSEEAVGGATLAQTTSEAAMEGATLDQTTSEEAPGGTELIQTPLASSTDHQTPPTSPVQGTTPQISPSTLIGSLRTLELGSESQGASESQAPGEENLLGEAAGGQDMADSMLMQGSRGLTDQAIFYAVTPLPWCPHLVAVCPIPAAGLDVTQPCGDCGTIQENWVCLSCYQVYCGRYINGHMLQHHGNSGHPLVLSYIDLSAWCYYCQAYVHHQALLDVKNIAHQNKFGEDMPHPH

HDAC1 [1] = target: T2, HDAC1 (Homo sapiens, UniProt Q13547); assay: In vitro deacetylation assay, HDAC1 (RHKK substrate); assay type: biochemical; conditions: for IC50: purified human HDAC1, RHK[AcK]-AMC (RHKK) substrate; for SI (HD6/HD1) RHKK: ratio of IC50 HDAC1 (RHKK) divided by IC50 HDAC6
T2 construct: HDAC1 1-482 Addgene; Strep-FLAG-HALO (N); made in house; host or cells: HEK293/T17
T2 sequence (Q13547 whole entry): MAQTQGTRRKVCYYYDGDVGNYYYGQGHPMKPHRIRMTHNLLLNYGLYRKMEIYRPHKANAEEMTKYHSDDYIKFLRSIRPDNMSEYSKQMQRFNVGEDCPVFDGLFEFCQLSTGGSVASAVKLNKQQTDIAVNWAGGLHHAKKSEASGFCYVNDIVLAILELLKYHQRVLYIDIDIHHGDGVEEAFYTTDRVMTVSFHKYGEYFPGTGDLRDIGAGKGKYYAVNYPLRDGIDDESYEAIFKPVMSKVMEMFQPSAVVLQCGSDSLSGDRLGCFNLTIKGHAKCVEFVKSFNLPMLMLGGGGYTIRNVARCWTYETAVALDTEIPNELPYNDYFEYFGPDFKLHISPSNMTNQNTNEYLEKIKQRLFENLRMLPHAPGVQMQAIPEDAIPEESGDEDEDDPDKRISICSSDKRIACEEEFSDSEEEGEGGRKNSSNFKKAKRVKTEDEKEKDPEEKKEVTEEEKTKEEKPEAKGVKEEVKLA

HDAC6 = target: T3, HDAC6 (Homo sapiens, UniProt Q9UBN7); assay: In vitro deacetylation assay, HDAC6 (GAK substrate); assay type: biochemical; conditions: for EC50: Figure 2C, in vitro data in μM; for IC50: purified human HDAC6, Ac-GAK-Ac-AMC (GAK) substrate 10 µM
T3 construct: HDAC6 2-1215 Open Biosystems; Strep-FLAG-HALO (N); made in house; host or cells: HEK293/T17
T3 sequence (Q9UBN7 2-1215): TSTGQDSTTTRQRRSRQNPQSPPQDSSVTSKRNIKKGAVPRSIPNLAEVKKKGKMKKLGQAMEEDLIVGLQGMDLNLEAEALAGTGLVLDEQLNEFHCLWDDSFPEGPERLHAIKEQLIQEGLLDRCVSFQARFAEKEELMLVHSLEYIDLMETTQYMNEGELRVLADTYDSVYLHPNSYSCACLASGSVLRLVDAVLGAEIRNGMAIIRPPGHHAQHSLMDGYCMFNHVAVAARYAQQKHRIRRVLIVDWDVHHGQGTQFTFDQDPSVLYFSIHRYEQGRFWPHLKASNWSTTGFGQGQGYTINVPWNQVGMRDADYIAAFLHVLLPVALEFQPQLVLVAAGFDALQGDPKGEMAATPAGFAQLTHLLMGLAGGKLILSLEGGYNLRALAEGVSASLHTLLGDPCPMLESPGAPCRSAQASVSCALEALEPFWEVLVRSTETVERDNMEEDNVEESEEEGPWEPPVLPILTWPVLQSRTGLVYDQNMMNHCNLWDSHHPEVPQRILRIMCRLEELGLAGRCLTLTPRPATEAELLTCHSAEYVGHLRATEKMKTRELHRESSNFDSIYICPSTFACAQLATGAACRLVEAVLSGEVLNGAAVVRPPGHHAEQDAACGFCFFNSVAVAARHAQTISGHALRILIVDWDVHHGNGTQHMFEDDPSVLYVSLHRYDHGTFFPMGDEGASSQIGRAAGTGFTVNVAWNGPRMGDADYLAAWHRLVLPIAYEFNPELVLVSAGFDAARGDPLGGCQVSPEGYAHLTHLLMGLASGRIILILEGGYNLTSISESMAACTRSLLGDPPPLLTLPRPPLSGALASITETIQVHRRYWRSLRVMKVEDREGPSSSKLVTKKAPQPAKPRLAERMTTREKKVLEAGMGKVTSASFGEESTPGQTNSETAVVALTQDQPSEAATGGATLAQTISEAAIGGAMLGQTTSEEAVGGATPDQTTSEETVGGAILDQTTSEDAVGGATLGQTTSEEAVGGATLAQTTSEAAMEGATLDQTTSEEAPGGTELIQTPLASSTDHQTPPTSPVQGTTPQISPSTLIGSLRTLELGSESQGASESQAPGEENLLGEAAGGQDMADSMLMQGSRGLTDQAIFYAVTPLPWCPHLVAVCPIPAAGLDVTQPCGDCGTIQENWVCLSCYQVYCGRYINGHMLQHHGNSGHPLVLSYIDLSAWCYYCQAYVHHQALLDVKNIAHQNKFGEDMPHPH

MTT viability assay = assay type: cell-based; conditions: human, RPMI-8226 lymphoblasts, RPMI-8226 cells, read-out: EC50 cytotoxicity (MTT viability)
Description: RPMI-8226 lymphoblasts (ATTC #CCL-155) were used to assess the cytotoxicity of tested compounds. […] Dilution series of tested inhibitors were prepared as 10x stock solutions in PBS and 10 μL was added to cells and incubated under a 5% CO2 atmosphere at 37 °C, for 2 days. Following incubation, 10 μL of MTT reagent (3-(4,5-dimethylthiazol-2-yl)-2,5-diphenyltetrazolium bromide, 5 mg/mL in PBS, Sigma Aldrich) was added to each well and incubated for 90 min, 37 °C, 5% CO2. […]

HDAC1 [2] = target: T2, HDAC1; assay: In vitro deacetylation assay, HDAC1 (GAK substrate); assay type: biochemical; conditions: for IC50: purified human HDAC1, GAK substrate 10 µM

Row | Structure (SMILES) | EC50 (HDAC6-nanoLuc) [nM] | IC50 (HDAC1 [1]) [nM] | SI (HD6/HD1) RHKK (HDAC1 [1]) | EC50 (HDAC6) [µM] | IC50 (HDAC6) | EC50 at 48 h (MTT viability assay) [nM] | EC50 (HDAC1 [2]; Figure 2C, in vitro data (GAK) in μM) [µM] | IC50 (HDAC1 [2]) [nM] | SI (HD6/HD1) GAK, in vitro (HDAC1 [2]; ratio of IC50 HDAC1 (GAK) divided by IC50 HDAC6)
1 | O=C(NO)c1cnc(NC2(c3cccc(F)c3)CCCCC2)nc1 [ACY-775] | 270 | 21700 | 19,550 | 0.0011 | 1.11 nM | 8600 | 1.19 | 1190 | 1076
2 | CS(=O)(=O)N(Cc1ccc(-c2nnc(C(F)F)o2)cn1)c1cccc(Cl)c1 [compound 7, N-(3-chlorophenyl)-N-((5-(5-(difluoromethyl)-1,3,4-oxadiazol-2-yl)pyridin-2-yl)methyl)methanesulfonamide] | 160 | > 50000 | >25,000 | 0.0021 | 2.1 nM and 2.06 nM | > 50000 |  | > 50000 | 
